Test results published in US11401278B2, “Macrocyclic indole derivatives” (The Broad Institute, Inc., priority 2017, dated 2022).
Counter-ions that a name gives are not always drawn. Blank lines part the entries; values can stand above or below the compound they belong to.

Columns and labels:
SUDHL5 [1] = test: Induction of cytotoxicity (Assay 6), SUDHL5; details: read-out: Cytotox SUDHL5 [M] (median) IC50, CellTiter-Glo, 5 hours, SUDHL5
Protocol: Assay 6 Induction of Cytotoxicity Upon Treatment of Cells with Selected Compounds
Therefore, cytotoxicity assays were run in parallel in SUDHL5 and SUDHL10 cells.
The different cell lines were plated in culture medium (RPMI 1640 [GIBCO #22400-089] supplemented with 10% Fetal Bovine Serum) at a density of 3,300 cells in 30 μl/well in a sterile, solid black, flat bottom, polystyrene, TC-treated 384-well microplate (Corning #3571) using Multidrop Combi Reagent Dispenser. As a control, medium without cells was also added to the plate. Cells were incubated in a humidified incubator at 37° C. overnight. On the next day, the cells were treated with compounds (stock solution, 10 mM in DMSO) using the HP D300 Digital Dispenser in a concentration range of 3.3×10e-5 M (33 μM) to 5×10e-9 M (5 nM) in a single-dot curve with at least 16 dilutions and a DMSO concentration of 0.33%. Rim wells were excluded. The cells were incubated for 5 hours in a humidified incubator at 37° C. After this incubation, 30 μl of CellTiter-Glo® Luminescent Cell Viability reagent (Promega, G7573) was added to each well using the Multidrop Combi Reagent Dispenser, followed by 15 minutes incubation on a shaker at room temperature. Finally, luminescence was read at 0.1 ms, with a gain of 3000 using the PHERAstar FS microplate reader (BMG Labtech).

BCL-XL = BCL-XL (Homo sapiens (Human), UniProt Q07817); test: Protein-protein interaction assay BCL-XL/Bad BH3 peptide (BCL-XL assay, TR-FRET); type: binding; details: His-BCL-XL / Bad BH3 peptide, median
Protocol: Assay 2 Protein-Protein Interaction Assay: BCL-XL/Bad BH3 Peptide (BCL-XL Assay)
The dose-dependent inhibition by the compounds described in this invention of the interaction between BCL-XL and the BH3 domain of Bad (both human) was determined using a steady state binding competition assay with time-resolved fluorescence energy transfer (TR-FRET) readout. For that purpose BCL-XL (amino acids 1-212, C-terminal fused to a hexahistidine (6×His) tag (SEQ ID 3) and a synthetic Bad BH3-derived peptide of sequence Biotin-PEG2-PEG2-NLWAAQRYGRELRR-Nle-SDEFVDSFKK-amide (SEQ ID 4) served as protein receptor and tracer ligand respectively. The recombinant BCL-XL protein (expressed in E. coli) was purchased from BPS Bioscience (San Diego, Calif., USA). The Bad BH3-derived peptide can be obtained from e.g. Biosyntan (Berlin, Germany).
In the assay 11 different concentrations of each compound (0.1 nM, 0.33 nM, 1.1 nM, 3.8 nM, 13 nM, 44 nM, 0.15 μM, 0.51 μM, 1.7 μM, 5.9 μM and 20 μM) were typically measured as duplicates in the same microtiter plate. For that, 100-fold concentrated DMSO solutions were prepared by serial dilutions (1:3.4) of a 2 mM stock solution in a clear, 384-well microtiter plate (Greiner Bio-One, Frickenhausen, Germany). From there, 50 nl were transferred in a dark test plate (Greiner Bio-One, Frickenhausen, Germany). The assay was initiated by addition of 2 μl of a 2.5-fold concentrated His-BCL-XL solution (usually for a 1 nM end concentration in 5 μl reaction volume) in aqueous assay buffer [50 mM Tris/HCl pH 7, 100 mM sodium chloride (NaCl), 50 mM potassium fluoride (KF), 0.005% Tween-20, 2 mM DTT, 0.1% bovine gamma globulin (BGG)] to the compounds in the assay plate. This was followed by a 10-minute incubation step at 22° C. for pre-equilibration of the putative complex between His-BCL-XL and the compounds. After that, 3 μl of a 1.67-fold concentrated solution (in assay buffer) consisting of Bad BH3-derived peptide (1 nM end concentration) and TR-FRET detection reagents [1.67 nM anti-His-Eu cryptate and 1.67 nM streptavidin-XL665 (both from Cisbio Bioassays, Codolet, France)], were added.
The mixture was incubated in the dark for one hour at 22° C. and then overnight at 4° C. The formation of BCL-XL/Bad complexes was determined by measuring the resonance energy transfer of the anti-His- Eu-cryptate antibody to the streptavidin-XL665 present in the reaction. For that purpose, the fluorescence emission at 620 nm and 665 nm after excitation at 330-350 nm was measured in a TR-FRET measuring instrument, for instance a Rubystar or a Pherastar (both from BMG Lab Technologies, Offenburg, Germany) or a Viewlux (Perkin-Elmer). The ratio of the emission at 665 nm and at 622 nm was used as indicator of the amount of BCL-XL/Bad complexes present.
The resulting data (ratio) were normalized, taking 0% inhibition as the mean value of control measurements (usually 32 data points) where all reagents were included. In this case 50 nl DMSO were used instead of compounds. A 100% inhibition corresponded to the mean value of control measurements (usually 32 data points) where all reagents except BCL-XL were included. IC50 values were determined by regression analysis based on a 4 parameter equation (minimum, maximum, IC50, Hill; Y=Max+(Min−Max)/(1+(X/IC50)^HiII) using the Screener Software (Genedata).

SUDHL5 [2] = test: Antiproliferation assay (Assay 7), SUDHL5; type: cell-based; details: CellTiter-Glo, median, read-out: Antiproli SUDHL5 [M] (median) IC50
How it was run: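 Proliferation over 72 h at 37° C was assessed by luminescent cell viability reagent, referenced to a day 0 plate.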

SUDHL5 [3] = test: Induction of caspase-3/7 activity (Assay 4), SUDHL5; type: cell-based; details: caspase-3/7 induction, median
How it was run: (§1)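 DLBCL cells were exposed to compounds for 3 hours at 37 °C, then caspase-3/7 activation was read with Caspase-Glo 3/7 reagent. After subtracting medium-only background, EC50s were derived with fixed C0=1 and the reference compound's maximal induction as plateau.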

SUDHL10 = test: Induction of caspase-3/7 activity (Assay 4), SUDHL10; type: cell-based; details: caspase-3/7 induction, median
How it was run: as §1

Chain of BCL-XL (Q07817 other isoform, or with tags, fused parts or gaps): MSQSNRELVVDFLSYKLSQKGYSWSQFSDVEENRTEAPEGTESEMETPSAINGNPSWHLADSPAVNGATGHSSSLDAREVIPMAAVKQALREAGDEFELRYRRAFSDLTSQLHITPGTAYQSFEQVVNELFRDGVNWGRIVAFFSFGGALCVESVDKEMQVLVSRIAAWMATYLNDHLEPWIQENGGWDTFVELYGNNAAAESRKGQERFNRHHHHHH

SMILES: CCc1c2c(nn1C)CN(C)S(=O)(=O)CCCn1c(C(=O)O)c(CCCOc3cccc4ccccc34)c3ccc(Cl)c-2c31 [Example 20, (rac)-13-Chloro-12-ethyl-8,11-dimethyl-1-(3-(naphthalen-1-yloxy)propyl)-5,6,9,11-tetrahydro-4H,8H-pyrazolo[3′,4′:4,5][1]thia[2,8]diazacycloundecino[6,7,8-hi]indole-2-carboxylic acid 7,7-dioxide]
IC50 (SUDHL5 [1]; Homo sapiens, SU-DHL-5, 5 h): 9.1e-07 M
IC50 (BCL-XL): > 20000 nM
IC50 (SUDHL5 [2]; Homo sapiens, SU-DHL-5, 72 h): 5.2e-07 M
EC50 (SUDHL5 [3]; Homo sapiens, SU-DHL-5, 3 h): 860 nM
EC50 (SUDHL10; Homo sapiens, SU-DHL10, 3 h): 2100 nM

SMILES: CCc1c2c(nn1C)CN(C)S(=O)(=O)CCCn1c(C(=O)O)c(CCCOc3cccc4c3CCCC4)c3ccc(Cl)c-2c31 [Example 23, (rac)-13-Chloro-12-ethyl-8,11-dimethyl-1-(3-((5,6,7,8-tetrahydronaphthalen-1-yl)oxy)propyl)-4,5,6,8,9,11-hexahydropyrazolo[3′,4′:4,5][1,2,8]thiadiazacycloundecino[6,7,8-hi]indole-2-carboxylic acid 7,7-dioxide]
IC50 (SUDHL5 [1]; Homo sapiens, SU-DHL-5, 5 h): 1.7e-06 M
IC50 (BCL-XL): > 20000 nM
IC50 (SUDHL5 [2]; Homo sapiens, SU-DHL-5, 72 h): 6.9e-07 M
EC50 (SUDHL5 [3]; Homo sapiens, SU-DHL-5, 3 h): 1300 nM
EC50 (SUDHL10; Homo sapiens, SU-DHL10, 3 h): 2300 nM

SMILES: CCc1c2c(nn1C)CN(C)S(=O)(=O)CCCn1c(C(=O)O)c(CCCOc3cccc4cc(F)ccc34)c3ccc(F)c-2c31 (single isomer, unassigned; enantiomer 1) [Example 8, (+)-3-Ethyl-4-fluoro-7-{3-[(6-fluoronaphthalen-1-yl)oxy]propyl}-2,14-dimethyl-13,13-dioxo-10,11,12,13,14,15-hexahydro-2H-13λ^6-pyrazolo[3′,4′:4,5][1,2,8]thiadiazacycloundecino-[6,7,8-hi]indole-8-carboxylic acid (Enantiomer 1)]
IC50 (SUDHL5 [1]): 7.7e-07 M
IC50 (BCL-XL): > 20000 nM
IC50 (SUDHL5 [2]; 72 hours): 7.6e-07 M
EC50 (SUDHL5 [3]; 3 hours): 580 nM
EC50 (SUDHL10; 3 hours): 1000 nM

SMILES: CCc1c2c(nn1C)C(C)N(C)S(=O)(=O)CCCn1c(C(=O)O)c(CCCOc3cccc4ccccc34)c3cccc-2c31 (racemic) [Example 18, 12-Ethyl-8,9,11-trimethyl-1-(3-(naphthalen-1-yloxy)propyl)-5,6,9,11-tetrahydro-4H,8H-pyrazolo[3′,4′:4,5][1]thia[2,8]diazacycloundecino[6,7,8-hi]indole-2-carboxylic acid 7,7-dioxide (Mixture of Stereoisomers)]
IC50 (SUDHL5 [1]; Homo sapiens, SU-DHL-5, 5 h): 3.5e-06 M
IC50 (BCL-XL): > 20000 nM
IC50 (SUDHL5 [2]; Homo sapiens, SU-DHL-5, 72 h): 3.7e-06 M
EC50 (SUDHL5 [3]; Homo sapiens, SU-DHL-5, 3 h): 3800 nM
EC50 (SUDHL10; Homo sapiens, SU-DHL10, 3 h): 8400 nM

Further lines, with some results ahead:

IC50 (BCL-XL): > 20000 nM
IC50 (SUDHL5 [2]; 72 hours): 3e-07 M
EC50 (SUDHL5 [3]; 3 hours): 390 nM
EC50 (SUDHL10; 3 hours): 380 nM
SMILES: Cc1c2c(nn1C)C(CCN1CCOCC1)N(C)S(=O)(=O)CCCn1c(C(=O)O)c(CCCOc3cccc4ccccc34)c3cccc-2c31 (single isomer, unassigned; enantiomer 2) [Example 46, 2,3,14-trimethyl-15-[2-(morpholin-4-yl)ethyl]-7-{3-[(naphthalen-1-yl)oxy]propyl}-13,13-dioxo-10,11,12,13,14,15-hexahydro-2H-13lambda^6-pyrazolo[3′,4′:4,5][1,2,8]thiadiazacycloundecino[6,7,8-hi]indole-8-carboxylic acid N-ethylethanamine Salt (Enantiomer 2)]
IC50 (SUDHL5 [1]): 5e-07 M

IC50 (BCL-XL): > 20000 nM
IC50 (SUDHL5 [2]; Homo sapiens, SU-DHL-5, 72 h): 7.2e-06 M
EC50 (SUDHL5 [3]; Homo sapiens, SU-DHL-5, 3 h): 4800 nM
EC50 (SUDHL10; Homo sapiens, SU-DHL10, 3 h): 14000 nM
SMILES: CCc1c2c(nn1C)CN(CCN1CCOCC1)S(=O)(=O)CCCn1c(C(=O)O)c(CCCOc3cccc4cc(F)ccc34)c3ccc(Cl)c-2c31 [Example 77, (rac)-13-chloro-12-ethyl-1-(3-((6-fluoronaphthalen-1-yl)oxy)propyl)-11-methyl-8-(2-morpholinoethyl)-5,6,9,11-tetrahydro-4H,8H-pyrazolo[3′,4′:4,5][1]thia[2,8]diazacycloundecino[6,7,8-hi]indole-2-carboxylic acid 7,7-dioxide]
IC50 (SUDHL5 [1]; Homo sapiens, SU-DHL-5, 5 h): 6.7e-06 M

IC50 (BCL-XL): > 20000 nM
IC50 (SUDHL5 [2]; Homo sapiens, SU-DHL-5, 72 h): 2e-06 M
EC50 (SUDHL5 [3]; Homo sapiens, SU-DHL-5, 3 h): 650 nM
EC50 (SUDHL10; Homo sapiens, SU-DHL10, 3 h): 2800 nM
SMILES: Cc1c2c(nn1C)CNS(=O)(=O)CCCn1c(C(=O)O)c(CCCOc3cccc4cc(F)ccc34)c3ccc(Cl)c-2c31 (racemic) [Example 50, (rac)-4-chloro-7-{3-[(6-fluoro-1-naphthyl)oxy]propyl}-2,3-dimethyl-11,12,14,15-tetrahydro-2H,10H-pyrazolo[3′,4′:4,5][1,2,8]thiadiazacycloundecino[6,7,8-hi]indole-8-carboxylic acid 13,13-dioxide]
IC50 (SUDHL5 [1]; Homo sapiens, SU-DHL-5, 5 h): 1.4e-06 M

IC50 (BCL-XL): 18000 nM
IC50 (SUDHL5 [2]; 72 hours): 2.2e-06 M
EC50 (SUDHL5 [3]; 3 hours): 5000 nM
EC50 (SUDHL10; 3 hours): 12000 nM
SMILES: CCc1c2c(nn1C)CN(C)S(=O)(=O)CCCn1c(C(=O)O)c(CCCOc3cccc4cc(F)ccc34)c3ccc(Cl)c-2c31 (single isomer, unassigned; enantiomer 2) [Example 37, (−)-4-chloro-3-ethyl-7-{3-[(6-fluoronaphthalen-1-yl)oxy]propyl}-2,14-dimethyl-13,13-dioxo-10,11,12,13,14,15-hexahydro-2H-13lambda^6-pyrazolo[3′,4′:4,5][1,2,8]thiadiazacycloundecino-[6,7,8-hi]indole-8-carboxylic acid (Enantiomer 2)]
IC50 (SUDHL5 [1]): 5.7e-06 M

IC50 (BCL-XL): > 20000 nM
IC50 (SUDHL5 [2]; 72 hours): 6e-08 M
EC50 (SUDHL5 [3]; 3 hours): 47 nM
EC50 (SUDHL10; 3 hours): 60 nM
SMILES: Cc1c2c(nn1C)C(CCN1CCOCC1)N(C)S(=O)(=O)CCCn1c(C(=O)O)c(CCCOc3cccc4cc(F)ccc34)c3ccc(Cl)c-2c31 (racemic) [Example 65, (rac)-4-chloro-7-{3-[(6-fluoronaphthalen-1-yl)oxy]propyl}-2,3,14-trimethyl-15-(rac)-[2-(morpholin-4-yl)ethyl]-13,13-dioxo-10,11,12,13,14,15-hexahydro-2H-13lambda^6-pyrazolo[3′,4′:4,5][1,2,8]thiadiazacycloundecino[6,7,8-hi]indole-8-carboxylic acid (Mixture of Stereoisomers)]
IC50 (SUDHL5 [1]): 5.8e-08 M

IC50 (BCL-XL): > 20000 nM
IC50 (SUDHL5 [2]; Homo sapiens, SU-DHL-5, 72 h): 1.4e-06 M
EC50 (SUDHL5 [3]; Homo sapiens, SU-DHL-5, 3 h): 1700 nM
EC50 (SUDHL10; Homo sapiens, SU-DHL10, 3 h): 5600 nM
SMILES: Cc1c2c(nn1C)CN(C)S(=O)(=O)CCCn1c(C(=O)O)c(CCCOc3ccc(F)c4ccccc34)c3ccc(F)c-2c31 [Example 30, (rac)-13-Fluoro-1-(34(4-fluoronaphthalen-1-yl)oxy)propyl)-8,11,12-trimethyl-5,6,9,11-tetrahydro-4H,8H-pyrazolo[3′,4′:4,5][1]thia[2,8]diazacycloundecino[6,7,8-hi]indole-2-carboxylic acid 7,7-dioxide]
IC50 (SUDHL5 [1]; Homo sapiens, SU-DHL-5, 5 h): 1.7e-06 M
